Consider seven compounds from patent US8076487B2, “Pyridone derivative and herbicide” (Kumiai Chemical Industry Co., Ltd., priority 2006, dated 2011).

Type in all cases: in vivo
In assay [1] the test system is barnyardgrass (Echinochloa crus-galli (L.) P. Beauv. var. crus-galli). Kind of assay: Test Example 2: herbicidal effect by soil application to upland field. The conditions noted are these: soil surface spray, upland field soil, 1,000 g active ingredient per hectare, 21st day after application. The method in brief:
(§1)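 Greenhouse pot assay with field soil. Freshly sown seeds were covered with soil, then the surface was sprayed with diluted wettable powder: 1,000 g a.i./ha, 1,000 L/ha. Herbicidal effect scored at day 21 by standard criteria.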

The test system of assay [2] is green foxtail (Setaria viridis (L.) P. Beauv.). The assay is described as above. The following applies: soil surface spray, upland field soil, 1,000 g active ingredient per hectare, 21st day after application. The method in brief: as §1
For assay [3], the system named is velvetleaf (Abutilon theophrasti medicus). The assay is described as above. The following applies: soil surface spray, upland field soil, 1,000 g active ingredient per hectare, 21st day after application. The method, boiled down:
as §1

Assay [4] has as its system slender amaranth (Amaranthus viridis L.). The assay is described as above. The conditions noted are these: soil surface spray, upland field soil, 1,000 g active ingredient per hectare, 21st day after application. The method in brief:
as §1

Assay [5] deals with barnyardgrass (Echinochloa crus-galli (L.) P. Beauv. var. crus-galli). As to the kind of experiment: Test Example 3: herbicidal effect by application to upland field (foliage treatment). The conditions noted are these: 14th day after application; for herbicidal effect (index), Barnyardgrass: foliage treatment, plants grown two weeks, 1,000 g active ingredient per hectare; for herbicidal effect, Barnyardgrass: foliage treatment, 1,000 g active ingredient per 1 hectare, greenhouse. The method in brief: (§2)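 Foliar spray on two-week-old greenhouse weeds in field soil: wettable powder formulation diluted in water, applied at 1,000 L/ha to give 1,000 g a.i./ha. Damage rated by a fixed scoring standard on day 14 after application.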

Assay [6] has as its system green foxtail (Setaria viridis (L.) P. Beauv.). The assay is described as above. The conditions noted are these: 14th day after application; for herbicidal effect (index), Green Foxtail: foliage treatment, plants grown two weeks, 1,000 g active ingredient per hectare; for herbicidal effect, Green Foxtail: foliage treatment, 1,000 g active ingredient per 1 hectare, greenhouse. The method, boiled down:
as §2

For assay [7], the system named is velvetleaf (Abutilon theophrasti medicus). Described as above. The conditions noted are these: 14th day after application; for herbicidal effect (index), Velvetleaf: foliage treatment, plants grown two weeks, 1,000 g active ingredient per hectare; for herbicidal effect, Velvetleaf: foliage treatment, 1,000 g active ingredient per 1 hectare, greenhouse. The method in brief:
as §2

Assay [8] relates to slender amaranth (Amaranthus viridis L.). Described as above. The following applies: 14th day after application; for herbicidal effect (index), Slender Amaranth: foliage treatment, plants grown two weeks, 1,000 g active ingredient per hectare; for herbicidal effect, Slender Amaranth: foliage treatment, 1,000 g active ingredient per 1 hectare, greenhouse. The method in brief: as §2

The subject of assay [9] is early watergrass (Echinochloa oryzicola Vasing). Kind of assay: Test Example 1: herbicidal effect by soil application to paddy field. The following applies: paddy field soil application; active ingredient 1,000 g per 1 hectare; wettable powder added dropwise to water surface the day after sowing; examined on the 21st day after application. The method, boiled down:
(§3)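 Under greenhouse conditions, seeds sown on puddled paddy soil in 100 cm2 pots under 3 cm of standing water received the test compound; injury was assessed with a standard scoring scheme three weeks (day 21) after treatment.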

For assay [10], the system named is Japanese bulrush (Scirpus juncoides Roxb.). The assay is described as above. The conditions noted are these: paddy field soil application; active ingredient 1,000 g per 1 hectare; wettable powder added dropwise to water surface the day after sowing; examined on the 21st day after application. The method, boiled down:
as §3

Assay [11] deals with heartshape false pickerelweed (Monochoria vaginalis (Burm.f.) C.Presl). The assay is described as above. The conditions noted are these: paddy field soil application; active ingredient 1,000 g per 1 hectare; wettable powder added dropwise to water surface the day after sowing; examined on the 21st day after application. The method, boiled down: as §3

As for `CS(=O)(=O)c1cccc(-n2c(C(F)(F)F)ccc(C(=O)C3=C(O)CCCC3=O)c2=O)c1` [I-82], the “herbicidal effect (index), Barnyardgrass” value was 5 (90% or more of herbicidal effect and crop phytotoxicity) in assay [1]; 5 (90% or more of herbicidal effect and crop phytotoxicity) in assay [5]. Besides, the “herbicidal effect (index), Green Foxtail” value in [2] is 5 (90% or more of herbicidal effect and crop phytotoxicity); in [6], 5 (90% or more of herbicidal effect and crop phytotoxicity). The “herbicidal effect (index), Velvetleaf” value in [3] was 5 (90% or more of herbicidal effect and crop phytotoxicity); in assay [7], 5 (90% or more of herbicidal effect and crop phytotoxicity). The “herbicidal effect (index), Slender Amaranth” value in [4] is 5 (90% or more of herbicidal effect and crop phytotoxicity); in assay [8] it was 5 (90% or more of herbicidal effect and crop phytotoxicity). Also, in [9], the “herbicidal effect, Echinochloa oryzicola Vasing” value was 5 (90% or more of herbicidal effect and crop phytotoxicity). The “herbicidal effect, Scirpus juncoides Roxb.” value in assay [10] was 5 (90% or more of herbicidal effect and crop phytotoxicity). Besides, the “herbicidal effect, Monochoria vaginalis (Burm. f.) C. Presl” value (from here on “herbicidal effect, Monochoria vaginalis”) in [11] is 5 (90% or more of herbicidal effect and crop phytotoxicity).

Consider `COC(=O)N(C)n1c(C(F)(F)F)ccc(C(=O)C2=C(O)CCCC2=O)c1=O` [I-190], for which the “herbicidal effect (index), Barnyardgrass” value in assay [1] was 5 (90% or more of herbicidal effect and crop phytotoxicity). Further, the “herbicidal effect (index), Green Foxtail” value in [2] is 4 (70 to less than 90% of herbicidal effect and crop phytotoxicity). The “herbicidal effect (index), Velvetleaf” value in assay [3] is 5 (90% or more of herbicidal effect and crop phytotoxicity). In addition, in assay [4], the “herbicidal effect (index), Slender Amaranth” value is 5 (90% or more of herbicidal effect and crop phytotoxicity). Besides, the “herbicidal effect, Barnyardgrass” value in assay [5] was 5 (90% or more of herbicidal effect and crop phytotoxicity). In addition, the “herbicidal effect, Green Foxtail” value in assay [6] is 5 (90% or more of herbicidal effect and crop phytotoxicity). Also, the “herbicidal effect, Velvetleaf” value in assay [7] was 5 (90% or more of herbicidal effect and crop phytotoxicity). Moreover, in assay [8], the “herbicidal effect, Slender Amaranth” value is 5 (90% or more of herbicidal effect and crop phytotoxicity). Besides, the “herbicidal effect, Echinochloa oryzicola Vasing” value in [9] was 5 (90% or more of herbicidal effect and crop phytotoxicity). Also, the “herbicidal effect, Scirpus juncoides Roxb.” value in assay [10] was 5 (90% or more of herbicidal effect and crop phytotoxicity). For the same compound, the “herbicidal effect, Monochoria vaginalis” value in assay [11] is 5 (90% or more of herbicidal effect and crop phytotoxicity).

For `O=C1CCCC(O)=C1C(=O)c1ccc(C(F)(F)F)n(-c2ccc(OC(F)(F)F)cc2)c1=O` [I-79], the “herbicidal effect (index), Barnyardgrass” value in assay [1] was 5 (90% or more of herbicidal effect and crop phytotoxicity); in assay [5], 5 (90% or more of herbicidal effect and crop phytotoxicity). The “herbicidal effect (index), Green Foxtail” value in assay [2] is 5 (90% or more of herbicidal effect and crop phytotoxicity); in assay [6] it was 5 (90% or more of herbicidal effect and crop phytotoxicity). In addition, the “herbicidal effect (index), Velvetleaf” value in [3] is 5 (90% or more of herbicidal effect and crop phytotoxicity); in assay [7], 5 (90% or more of herbicidal effect and crop phytotoxicity). In addition, the “herbicidal effect (index), Slender Amaranth” value in assay [4] is 5 (90% or more of herbicidal effect and crop phytotoxicity); in assay [8], 5 (90% or more of herbicidal effect and crop phytotoxicity). Besides, the “herbicidal effect, Echinochloa oryzicola Vasing” value in assay [9] was 5 (90% or more of herbicidal effect and crop phytotoxicity). For the same compound, in [10], the “herbicidal effect, Scirpus juncoides Roxb.” value is 5 (90% or more of herbicidal effect and crop phytotoxicity). In addition, the “herbicidal effect, Monochoria vaginalis” value in assay [11] is 5 (90% or more of herbicidal effect and crop phytotoxicity).

On to `O=C1CCCC(O)=C1C(=O)c1ccc(C(F)F)n(-c2ccccc2)c1=O` [I-223], for which the “herbicidal effect (index), Barnyardgrass” value in assay [1] is 5 (90% or more of herbicidal effect and crop phytotoxicity). Further, in assay [2], the “herbicidal effect (index), Green Foxtail” value was 5 (90% or more of herbicidal effect and crop phytotoxicity). The “herbicidal effect (index), Velvetleaf” value in assay [3] is 5 (90% or more of herbicidal effect and crop phytotoxicity). Further, in assay [4], the “herbicidal effect (index), Slender Amaranth” value was 5 (90% or more of herbicidal effect and crop phytotoxicity). The “herbicidal effect, Barnyardgrass” value in assay [5] is 5 (90% or more of herbicidal effect and crop phytotoxicity). In addition, the “herbicidal effect, Green Foxtail” value in assay [6] was 5 (90% or more of herbicidal effect and crop phytotoxicity). The “herbicidal effect, Velvetleaf” value in [7] was 5 (90% or more of herbicidal effect and crop phytotoxicity). Moreover, in assay [8], the “herbicidal effect, Slender Amaranth” value was 5 (90% or more of herbicidal effect and crop phytotoxicity). In assay [9], the “herbicidal effect, Echinochloa oryzicola Vasing” value was 5 (90% or more of herbicidal effect and crop phytotoxicity). Moreover, the “herbicidal effect, Scirpus juncoides Roxb.” value in assay [10] is 5 (90% or more of herbicidal effect and crop phytotoxicity). Further, in [11], the “herbicidal effect, Monochoria vaginalis” value is 5 (90% or more of herbicidal effect and crop phytotoxicity).

For the compound `CC1(C)CCC(O)=C(C(=O)c2ccc(C(F)(F)F)n(-c3cc(F)cc(F)c3)c2=O)C1=O` [II-40], the “herbicidal effect (index), Barnyardgrass” value in assay [1] is 5 (90% or more of herbicidal effect and crop phytotoxicity). Also, in assay [2], the “herbicidal effect (index), Green Foxtail” value is 5 (90% or more of herbicidal effect and crop phytotoxicity). Also, in assay [3], the “herbicidal effect (index), Velvetleaf” value was 5 (90% or more of herbicidal effect and crop phytotoxicity). Besides, the “herbicidal effect (index), Slender Amaranth” value in assay [4] was 5 (90% or more of herbicidal effect and crop phytotoxicity). Moreover, the “herbicidal effect, Barnyardgrass” value in assay [5] is 5 (90% or more of herbicidal effect and crop phytotoxicity). Also, the “herbicidal effect, Green Foxtail” value in [6] was 4 (70 to less than 90% of herbicidal effect and crop phytotoxicity). Further, the “herbicidal effect, Velvetleaf” value in [7] was 5 (90% or more of herbicidal effect and crop phytotoxicity). Further, the “herbicidal effect, Slender Amaranth” value in assay [8] is 5 (90% or more of herbicidal effect and crop phytotoxicity). Besides, the “herbicidal effect, Echinochloa oryzicola Vasing” value in [9] is 5 (90% or more of herbicidal effect and crop phytotoxicity). For the same compound, in assay [10], the “herbicidal effect, Scirpus juncoides Roxb.” value was 5 (90% or more of herbicidal effect and crop phytotoxicity). In addition, the “herbicidal effect, Monochoria vaginalis” value in assay [11] was 5 (90% or more of herbicidal effect and crop phytotoxicity).

Consider `CCCCCCn1c(C(F)(F)F)ccc(C(=O)C2=C(O)CCCC2=O)c1=O` [I-9], for which the “herbicidal effect (index), Barnyardgrass” value is 4 (70 to less than 90% of herbicidal effect and crop phytotoxicity) in assay [1]; 5 (90% or more of herbicidal effect and crop phytotoxicity) in [5]. Also, the “herbicidal effect (index), Green Foxtail” value is 4 (70 to less than 90% of herbicidal effect and crop phytotoxicity) in [2]; 4 (70 to less than 90% of herbicidal effect and crop phytotoxicity) in assay [6]. Also, the “herbicidal effect (index), Velvetleaf” value in assay [3] was 5 (90% or more of herbicidal effect and crop phytotoxicity); in assay [7], 5 (90% or more of herbicidal effect and crop phytotoxicity). The “herbicidal effect (index), Slender Amaranth” value is 5 (90% or more of herbicidal effect and crop phytotoxicity) in assay [4]; 5 (90% or more of herbicidal effect and crop phytotoxicity) in assay [8]. The “herbicidal effect, Echinochloa oryzicola Vasing” value in assay [9] was 5 (90% or more of herbicidal effect and crop phytotoxicity). In addition, the “herbicidal effect, Scirpus juncoides Roxb.” value in [10] was 5 (90% or more of herbicidal effect and crop phytotoxicity). In addition, the “herbicidal effect, Monochoria vaginalis” value in [11] was 5 (90% or more of herbicidal effect and crop phytotoxicity).

In the case of `Cn1ncc(C(=O)c2ccc(C(F)(F)F)n(CC3CCOC3)c2=O)c1O` (centres unmarked) [IV-143], in assay [1], the “herbicidal effect (index), Barnyardgrass” value is 5 (90% or more of herbicidal effect and crop phytotoxicity). Also, in assay [2], the “herbicidal effect (index), Green Foxtail” value was 5 (90% or more of herbicidal effect and crop phytotoxicity). Further, the “herbicidal effect (index), Velvetleaf” value in assay [3] is 5 (90% or more of herbicidal effect and crop phytotoxicity). For the same compound, the “herbicidal effect (index), Slender Amaranth” value in [4] is 5 (90% or more of herbicidal effect and crop phytotoxicity). Also, the “herbicidal effect, Barnyardgrass” value in assay [5] was 5 (90% or more of herbicidal effect and crop phytotoxicity). Also, the “herbicidal effect, Green Foxtail” value in [6] was 5 (90% or more of herbicidal effect and crop phytotoxicity). Moreover, the “herbicidal effect, Velvetleaf” value in assay [7] is 5 (90% or more of herbicidal effect and crop phytotoxicity). Besides, the “herbicidal effect, Slender Amaranth” value in [8] is 5 (90% or more of herbicidal effect and crop phytotoxicity). For the same compound, the “herbicidal effect, Echinochloa oryzicola Vasing” value in assay [9] is 5 (90% or more of herbicidal effect and crop phytotoxicity). Further, the “herbicidal effect, Scirpus juncoides Roxb.” value in [10] was 5 (90% or more of herbicidal effect and crop phytotoxicity). The “herbicidal effect, Monochoria vaginalis” value in [11] was 5 (90% or more of herbicidal effect and crop phytotoxicity).
